Legend:
GST-Pin1 = GST-Pin1 (Homo sapiens, UniProt Q13526); assay: Fluorescence polarization (FP) competition assay; type: binding; conditions: FP assay, competition with fluorescein-labeled peptide, 250 nM GST-Pin1; read-out: Ki (apparent)
Description: Binding affinity to Pin1 was determined using a fluorescence polarization assay to assess competition with an N-terminal fluorescein-labeled peptide (Bth-D-phosThr-Pip-Nal), which was obtained from JPT Peptide Technologies and Proteintech Group. The indicated concentrations of candidate compound were pre-incubated for 12 hours at 4° C. with a solution containing 250 nM glutathione S-transferase (GST)-Pin1, 5 nM of fluorescein-labeled peptide probe, 10 μg/ml bovine serum albumin, 0.01% Tween-20 and 1 mM DTT (dithiothreitol) in a buffer of 10 mM HEPES, 10 mM NaCl and 1% glycerol (pH 7.4). Measurements of FP were performed in black 384-well plates (Corning) using an EnVision™ reader. Apparent Ki values (under the tested conditions) obtained from the FP assay results were derived from the Kenakin Ki equation:
Kenakin Ki=(Lb)(EC50)(Kd)/(Lo)(Ro)+Lb(Ro−Lo+Lb−Kd)
Sittampalam G. S. et al., Eli Lilly & Company and the National Center for Advancing Translational Sciences, 2004].
Covalent labeling of Pin1 was confirmed to translate into enzyme inhibition via a fluorescence polarization (FP) competition assay using a FITC-labeled substrate mimetic peptide inhibitor, as well as a chymotrypsin-coupled PPIase assay, using procedures described in Wei et al. [Nat Med 2015, 21:457-466].
The fluorescent polarization assay was performed in a dose-dependent and time-dependent manner, in order to further characterize the kinetic parameters of Pin1-3 binding to Pin1.

[1] = Thiol reactivity assay (DTNB); type: physicochemical; conditions: 200 μM compound, pH 7.4, 37° C.
Description: 50 μM DTNB (dithionitrobenzoic acid) was incubated with 200 μM TCEP (tris(2-carboxytehyl)phosphine) in 20 mM sodium phosphate buffer (pH 7.4) with 150 mM NaCl, for 5 minutes at room temperature, in order to obtain TNB^2− (thionitrobenzoate dianion). 200 μM compounds were subsequently added to the TNB^2−, followed by immediate UV absorbance measurement at 412 nm (at 37° C.). The UV absorbance was acquired every 15 minutes for 7 hours. The assay was performed in a 384-well plate using a Spark™ 10M plate reader (Tecan). Background absorbance of compounds was subtracted by measuring the absorbance at 412 nm of each compound under the same conditions without DTNB. Compounds were measured in triplicates. The data was fitted to a second order reaction equation such that the rate constant k is the slope of ln([A][B0]/[B][A0]), where [A0] and [B0] are the initial concentrations of the compound (200 μM) and TNB^2− (100 μM) respectively, and [A] and [B] are the remaining concentrations as a function of time, as determined from the spectrometric measurement. Linear regression using Prism® software was performed to fit the rate against the first four hours of measurements.
In order to estimate the influence of the various lipophilic moieties on “warhead” reactivity [Flanagan et al., J Med Chem 2014, 57:10072-10079; Lonsdale et al., J Chem Inf Model 2017, 57:3124-3137; Dahal et al., Medchemcomm 2016, 7:864-872], the thiol reactivity of the top ten binders of the second and third generation was assessed using a high-throughput assay previously applied to the entire fragment library, as described in Resnick et al. [J Am Chem Soc 2019, 141:8951-8968]. In brief, the second-order rate constant was evaluated for a model thiol, which reflects trends in general reactivity towards thiol groups.

catalytic domain of Pin1 = target: T1, catalytic domain of Pin1 (Homo sapiens, UniProt Q13526); assay: Intact protein LC/MS labeling of Pin1; type: binding
T1 construct: The purified catalytic domain of Pin1 was incubated with the fragment library
Description: 993 compounds were transferred to a 384-well plate working copy by combining 0.5 μl of 20 mM stock solution of four or five compounds per well. The catalytic domain of Pin1 (2 μM) in 20 mM Tris, 75 mM NaCl, pH 7.5 was incubated with 200 μM for each compound and moderately shaken for 24 hours at 4° C. The reaction was stopped by the addition of formic acid to 0.4% (v/v) final concentration.
Liquid chromatography/mass spectroscopy runs were performed on an Acquity™ UPLC® H-class system (Waters) in positive ion mode using electrospray ionization (ESI). UPLC separation was performed on a C4 column (300 Å, 1.7 μM, […]). The column was held at 40° C., and the autosampler at 10° C. Mobile solution A was 0.1% formic acid in water and mobile phase B was 0.1% formic acid in acetonitrile. Run flow was 0.4 ml/minute; and a gradient of 20% B for 2 minutes, increasing linearly to 60% B for 3 minutes, holding at 60% B for 1.5 minutes, changing to 0% B in 0.1 minute and holding at 0% for 1.4 minutes, was used. Desolvation temperature was 500° C. with a flow rate of 1000 liters/hour. The capillary voltage was 0.69 kV and cone voltage 46 V. Raw data was processed using OpenLynx™ software and deconvoluted using the MaxEnt tool. Labeling assignment was performed as described in Resnick et al. [J Am Chem Soc 2019, 141:8951-8968].
For the screening 2 μl of each of the 448 click products as 50 μM DMSO stocks were transferred into a 384-well plate working plate. 48 μl of catalytic domain of Pin1 (2 μM) in 20 mM Tris (pH 7.5) with 75 mM NaCl were added and moderately shaken and incubated for 15 minutes at room temperature. The reaction was stopped by the addition of formic acid to 0.4% (v/v) final concentration (20 μl). The mixtures were analyzed by liquid chromatography/mass spectroscopy analogously to the electrophile library incubations described herein. Hits were retrospectively analyzed by liquid chromatography/mass spectroscopy (LC-MS) to ensure reaction completion.
For each measured well, processed peaks were searched to match the mass of unlabeled protein or common small adducts of the unlabeled protein, which were found in the control sample or labeled protein. Labeling percentage for a compound was determined as the labeling of a specific compound divided by the overall detected protein species. Peaks whose mass could not be assigned were discarded from the overall labeling calculation. Data was analyzed using a python script for processing the MaxEnt-deconvoluted spectra. Peaks were normalized from ion counts to percentages, where the highest peak is defined as 100%. The unlabeled protein mass is deduced from a reference well that contains just the protein.
The purified catalytic domain of Pin1 was incubated with the fragment library (2 μM protein, 200 μM compound; 24 hours at 4° C.), followed by intact protein liquid chromatography/mass-spectrometry (LC/MS) to identify and quantify compound labeling. FIG. 1 depicts an example of a compound identified in this manner.
Based on the docking predictions, a total of 26 compounds that featured a range of small or bulky aliphatic, arylic, biphenylic or heterocyclic side-chains (structures depicted in FIG. 5), were synthesized or purchased. In order to identify potent binders, the irreversible labeling efficiency of these second-generation compounds was assessed alongside the original screening hits under more stringent conditions, with a 1:1 ratio of protein to compound (2 μM compound; 1 hour at room temperature).
For further optimization of the lipophilic moiety, an alkyne side chain-bearing analog was prepared, which was derivatized with 448 different azides using copper-catalyzed azide-alkyne cycloaddition (CuAAC).

MDA-MB-231 cells = assay: Cell viability assay (CellTiter-Glo); type: cell-based; conditions: cell viability assay with MDA-MB-231 cells
Description: MDA-MB-231 cells grew in DMEM medium supplemented with 10% FCS (fetal calf serum), 1% PS (penicillin-streptomycin) and 1% L-glutamine (all from Biological Industries). Exclusion of mycoplasma contamination was monitored and conducted by test with MycoAlert™ kit (Lonza). Cells were trypsinized and counted, and 1000 cells/well were plated in 50 μl of growth medium into 384-well white TC plates (Greiner) using Multidrop™ 384 (Thermo Scientific) Washer Dispenser II. The number of viable cells was monitored using CellTiter-Glo® Luminescent kit (Promega) in accordance with the manufacturer's protocol. Luminescence was measured using luminescence module of PHERAstar™ FS plate reader (BMG Labtech). Data analysis was performed using GeneData 12 analytic software. Assay ready plate preparation: Compounds transferred into black microplates (Greiner 784900) using Labcyte Echo® acoustic dispensing technology. Assay ready plates were then sealed with heat seals. If not used immediately, plates were frozen at −20° C. and held in polypropylene boxes with silica-gel desiccant.
Exemplary Pin1-binding compounds were also tested for non-selective cytotoxicity in a viability assay against IMR90 lung fibroblasts.

[2] = 2 μM Pin1 with 2 μM test compound for 1 hour at room temperature
[3] = 2 μM Pin1 with 2 μM test compound for 15 minutes at room temperature

T1 sequence (Q13526 52-163 limits assumed): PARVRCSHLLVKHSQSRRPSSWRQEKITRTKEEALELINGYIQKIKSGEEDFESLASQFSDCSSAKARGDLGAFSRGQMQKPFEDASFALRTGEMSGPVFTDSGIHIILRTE
Chain of GST-Pin1 (Q13526 whole entry): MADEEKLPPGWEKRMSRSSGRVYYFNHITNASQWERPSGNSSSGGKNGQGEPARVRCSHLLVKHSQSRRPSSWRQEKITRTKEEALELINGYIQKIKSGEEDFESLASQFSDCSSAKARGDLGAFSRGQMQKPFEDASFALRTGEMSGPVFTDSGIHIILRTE

Row | SMILES | Ki (GST-Pin1) | Labeling [%] (catalytic domain of Pin1; [2]) | EC50 (MDA-MB-231 cells) | Labeling [%] (catalytic domain of Pin1; [3]) | EC50 (MDA-MB-231 cells; Homo sapiens) | Reactivity Log k [1] | Reactivity k [1]
1 | CC1(N(Cc2ccccc2)C(=O)CCl)CCS(=O)(=O)C1 (centres unmarked) [Pin1-2-9] | 83 nM | 43% | 11300 nM |  |  | −7.11 | 7.68e-08 M⁻¹ s⁻¹
2 | O=C(CCl)N(Cc1ccccc1OCc1ccccc1)C1CCS(=O)(=O)C1 (centres unmarked) [Pin1-2-7] | 39 nM | 37% | 6100 nM |  |  | −6.99 | 1.02e-07 M⁻¹ s⁻¹
3 | O=C(CCl)N(CC1CCCCC1)C1CCS(=O)(=O)C1 (centres unmarked) [Pin1-2-3, 2-chloro-N-(sulfolan-3-yl)-N-(cyclohexylmethyl)acetamide] | 46 nM |  |  | 42% | 7500 nM | −6.82 | 1.53e-07 M⁻¹ s⁻¹
4 | O=C(CCl)N(C1CCS(=O)(=O)C1)C(Cc1ccccc1)c1ccccc1 (centres unmarked) [Pin1-2-1] | 58 nM | 50% | 2800 nM |  |  | −6.96 | 1.09e-07 M⁻¹ s⁻¹
5 | O=C1C=CC(=O)c2c(O)cccc21 [Juglone, 5-hydroxy-1,4-naphthalenedione, reference compound] | 1750 nM |  |  |  |  |  | 
6 | COC(=O)c1ccc(-n2cc(CN(C(=O)CCl)C3CCS(=O)(=O)C3)nn2)cc1 (centres unmarked) [Compound P1-01-B11] |  |  |  | 89% |  | −6.86 | 1.37e-07 M⁻¹ s⁻¹

More lines, main results first:

Row | Ki (GST-Pin1) | Labeling [%] (catalytic domain of Pin1; [2]) | EC50 (MDA-MB-231 cells) | Labeling [%] (catalytic domain of Pin1; [3]) | EC50 (MDA-MB-231 cells; Homo sapiens) | SMILES | Reactivity Log k [1] | Reactivity k [1]
7 | 121 nM |  |  |  |  | O=C(CCl)N(CC1CC1)C1CCS(=O)(=O)C1 (centres unmarked) [Pin1-3-13] | −6.82 | 1.5e-07 M⁻¹ s⁻¹
8 | 194 nM | 30% | 5600 nM |  |  | Cc1cccc(CN(C(=O)CCl)C2CCS(=O)(=O)C2)c1 (centres unmarked) [Pin1-2-6] | −6.80 | 1.58e-07 M⁻¹ s⁻¹
9 | 133 nM | 52% | 5100 nM |  |  | Cc1ccsc1CN(C(=O)CCl)C1CCS(=O)(=O)C1 (centres unmarked) [Pin1-2-8] | −6.66 | 2.19e-07 M⁻¹ s⁻¹
10 |  |  |  | 67% |  | O=C(CCl)N(Cc1cn(-c2cccc(Cl)c2)nn1)C1CCS(=O)(=O)C1 (centres unmarked) [Compound P1-01-G10] | −6.92 | 1.2e-07 M⁻¹ s⁻¹
11 |  | 16% |  |  |  | CCCN(C(=O)CCl)C1CCS(=O)(=O)C1 (centres unmarked) [Pin1-028] | −6.80 | 1.59e-07 M⁻¹ s⁻¹
12 |  | 27% |  |  |  | CC(c1ccccc1)N(C(=O)CCl)C1CCS(=O)(=O)C1 (centres unmarked) [Pin1-2-2] | −7.09 | 8.06e-08 M⁻¹ s⁻¹
13 |  | 45% | 8900 nM |  |  | O=C(CCl)N(Cc1cccs1)C1CCS(=O)(=O)C1 (centres unmarked) [Pin1-433] | −6.67 | 2.13e-07 M⁻¹ s⁻¹
